From a melting point compilation (Tetko et al.; mined from patent text by program, amines drawn as free bases though some values may be those of a salt)
Non-standard residues stand in square brackets, D forms with d. Residues, ends and D or L forms follow the SMILES beside them. ξ: configuration not given here. *: point of attachment. Boc = CC(C)(C)OC(=O)*; Dha = C=C(N)C(=O)O; ξP = O=C(O)C1CCCN1

Structure (SMILES)	melting point
O=Cc1c(Cl)cc(Cl)cc1OCc1ccc(F)cc1	107 to 108 °C
CCN(C)C(=O)Nc1cc(C(C)(C)C)on1	88.5 to 89.5 °C
COCN(c1noc(C)c1C)S(=O)(=O)C1(Br)C=CC=CC1 (centres undefined)	71 to 72 °C
CC(C)(O)c1nnc(-c2ccc3occ(-c4cc(F)ccc4F)c3c2)o1	155 to 156 °C
CNC(=O)CC1CSc2c(C(=O)OC(C)C)ccn21 (centres undefined)	117 to 119 °C
COC(=O)C(O)C(O)C(O)C(O)C(=O)OC (centres undefined)	90.2 to 90.7 °C
O=C(Cc1ccc(Oc2ccc(C(F)(F)F)cn2)cc1)Nc1ccncc1	167 to 170 °C
C=Cc1cc(C(C)(C)C)c(O)c(C(C)(C)C)c1	36 to 39 °C
CC(=O)Nc1cc2c3c(c1)c(=O)c(C(=O)O)cn3C(C)CC2 (centres undefined)	> 310 °C
CCOC(=O)c1sc(SC(C)C)c2c1CCC(N=[N+]=[N-])C2=O (centres undefined)	118 to 119 °C
CCCOc1ccc(-c2scc(-c3ccccc3Cl)c2CC(=O)NC(=N)NCCCO)cc1	49 to 50 °C
O=C(COc1ccccc1Br)c1ccccc1	112 to 113 °C
O=C1c2c(Cl)cccc2-n2cnc(-c3nnc(CCl)o3)c2[C@@H]2CCN12	185 to 189 °C
COC(=O)CCc1cc(C(=O)c2cccc(C(=O)OC)n2)ccc1OCCCC/C=C/c1ccc(OC)cc1	80 to 82 °C
CNC(NCc1ccc(Cl)nc1)=C(C(=S)NS(C)(=O)=O)[N+](=O)[O-]	129 to 131 °C
C=C(NC(=O)C1CCCN1C(=O)OC(C)(C)C)C(=O)O (centres undefined) (Boc-[ξP]-[Dha]-OH)	154 to 156 °C
CN(C)CCC1Cc2ccccc2C(C)(O)c2ccccc21 (centres undefined)	162 °C
CCc1ccc(N(Cc2ccc(N3CCOCC3)cc2)C(=O)C2CCCc3c(O)cccc32)cc1 (centres undefined)	200 °C
CS(=O)c1ccc(OCCCOc2cc(OCCCCCCCCCCCCOc3ccccc3)cc(N(CC(=O)O)CC(=O)O)c2)cc1 (centres undefined)	106 to 108 °C
CC(C)N(CCCCOc1ccc(-c2nnc(CSCCOc3ccccc3)o2)cc1)C(C)C	42 to 44 °C
CCOC(=O)CCCc1ccc(N[C@@H](CCC(N)=O)C(=O)O)cc1	179 to 180 °C

Structure (SMILES)	melting point
COc1c(C(c2ccccc2)c2ccccc2)ccc2ccccc12	119 to 121 °C
CCOC(=O)C1=C(C)N(C)C(C)=C(C(=O)OC)C1c1cc([N+](=O)[O-])ccc1Cl (centres undefined)	164 °C
COc1ccc(S(=O)(=O)Nc2cc(NC(=O)c3ccc(Cl)c(Cl)c3)ccc2OC)cc1	225 to 227 °C
CS(=O)(=O)N(Cc1cncnc1)c1ccc(F)cc1F	142 to 145 °C
CSCC[C@H](NC(=O)N[C@@H](CCSC)C(=O)O)C(=O)O	167 to 180 °C
CC(=O)Nc1cc(F)ccc1C(=O)NCCN1CCC(n2c(=O)[nH]c3cc(Cl)ccc32)CC1	196 °C
Cn1cc(-c2cc(-c3ccc4[nH]ccc4c3)ccn2)n(-c2ccc(C(C)(C)C#N)cc2)c1=O	238 °C
CCOC(=O)NN=Cc1nc(C)[nH]c1C	208 to 210 °C
COc1cc2c(cc1OC)C(Oc1ccc(Cl)cc1)CN(C)C2 (centres undefined)	112 to 115 °C
CC(=O)OCC1OC(n2cnc3c(NCC(c4ccccc4)c4ccccc4)ncnc32)C(OC(C)=O)C1OC(C)=O (centres undefined)	75 to 80 °C
CC1(C)CC(OC(=O)CCCCCNC(=O)OC2CC(C)(C)NC(C)(C)C2)CC(C)(C)N1	59 to 62 °C
O=C(NCc1ccc(Cl)cc1)c1cc(F)c2cccnc2c1O	184 to 185 °C
CN1Cc2cncn2-c2cccnc2C1=O	199 to 201 °C
C[C@]1(COc2ccc(N3CCC(Nc4cc(Cl)cc(Cl)c4)CC3)cc2)Cn2cc([N+](=O)[O-])nc2O1	122 to 124 °C
CCc1ccc(C(=O)Nc2ccccc2)cc1Nc1cccc(C(F)(F)F)c1	133 to 134 °C
N#Cc1ccc(-c2ccc(-c3nc4cc(C#N)ccc4[nH]3)cc2)c(OCc2ccccc2)c1	205 to 208 °C
COc1ccc(Cl)cc1NC(=O)[C@H]1[C@H](c2ccc(S(N)(=O)=O)cc2)C1(C)C (relative stereo)	129 to 133 °C
CC(=O)OCCCc1cc(C=C2SC(=S)N(C)C2=O)cc(CCCOC(C)=O)c1O	151 to 155 °C
OCCCCCCCCN1CCC(C(O)(c2ccc(F)cc2)c2ccc(F)cc2)CC1	124 to 125 °C
Cn1ncc(/C=C/C(=O)Nc2ccc(OCc3nnco3)cc2)c1-c1ccc(F)cc1	154 to 155 °C
CCC1CC(=O)N(CCc2ccc(NC(=O)c3cccs3)cc2)N=C1c1ccc(OC)c(OC)c1 (centres undefined)	186 °C

Structure (SMILES)	melting point
CC(C)C(=O)NCCc1ccc(NC(=O)C=C2CC(C(=O)O)Nc3cc(Cl)cc(Cl)c32)cc1 (racemic)	216 to 218 °C
CCCc1c(O)c(C(C)=O)cc(Cl)c1OCCCCCOc1c(C(C)=O)ccc(OCC(=O)O)c1CCC	77 to 80 °C
CC[C@H](C)[C@H](O)C(=O)N1CCC(Oc2cc3ncnc(Nc4cccc(Cl)c4F)c3cc2OC)CC1	114 to 118 °C
CCCc1ccc(Oc2c(-c3ccc(S(C)(=O)=O)cc3)cnn(CC(F)(F)F)c2=O)cc1	152 to 153 °C
COc1cc(OC)nc(Oc2cccc(Cl)c2C(=O)Oc2ccc([N+](=O)[O-])cc2)n1	130 to 132 °C
Cc1ccc2c3c(ccc2n1)OCC(CN1C2CCC1CC(O)(c1ccc4ccccc4c1)C2)O3 (centres undefined)	218 °C
O=[N+]([O-])c1ccc(C2CCN(c3ccncc3)CC2)cc1	173 to 174 °C
CCCCCCCCCCCCCCCCOc1ccc(C(C)=O)o1	72 to 76 °C
COC(=O)C1C2C=CC(C2)C1N(C)S(=O)(=O)c1ccc(OCc2ccccc2)cc1 (centres undefined)	103 to 104 °C
CCCCCCN1CCC[C@H](NCc2ccccc2OC)[C@@H]1c1ccccc1 (relative stereo)	48 to 50 °C
CCOC(=O)c1c(CCl)nc2sc(C)c(C)c2c1-c1ccc(Cl)cc1	132 to 144 °C
CC(C)(C)c1nc2cc(N3CCCCC3)c([N+](=O)[O-])cc2s1	147 to 148 °C
O=C(CCCCCCC(=O)c1ccc(F)cc1)c1ccc(F)cc1	123 to 124 °C
COc1cc(N)c(Cl)cc1C(=O)N[C@H]1CCN(CCNc2nccnc2C)C[C@H]1OC (relative stereo)	170 °C
CNc1nc(Cl)nc2c1ncn2C1OC(CO)C(O)C1O (centres undefined)	224 to 225 °C
COc1ccc(SSc2ccc(OC)cc2C(=O)Nc2ccc(S(N)(=O)=O)cc2)c(C(=O)Nc2ccc(S(N)(=O)=O)cc2)c1	242 to 243 °C
CN1CC2CC(=NO)c3cccc4c3N2C(C1)c1ccccc1C4 (centres undefined)	209 to 210 °C
Nc1nc(=Nc2ccccc2)n2c(n1)sc1ccccc12	> 250 °C
CCCCCCCCSC(=O)n1cc2cc(C)c(NC(=O)c3cc(OC)nn3-c3ncccc3Cl)c(C(=O)NC(C)C)c2n1	98 to 102 °C

Continued, values first:

melting point	Structure (SMILES)
93 °C	CCc1ccc(C2CCCN2S(=O)(=O)c2ccc(F)cc2)cc1 (racemic)
268 to 269 °C	Cc1nn(-c2ccccn2)c2[nH]c3ccc(S(C)=O)cc3c(=O)c12 (centres undefined)
64.5 to 66.5 °C	CSc1ccc(C2=C(c3ccc(C)cc3)CCC2)cc1
128 to 134 °C	O=C1C(=O)c2ccccc2C2=C1SCC1(CCCNC1)O2 (centres undefined)
166 to 167 °C	O=C(O)C1c2ccccc2COc2ccc(Br)cc21 (centres undefined)
241 to 244 °C	O=C(O)CN1C(=O)C(=Cc2cccc3ccccc23)SC1=S
70 to 74 °C	C#CC1(OCc2ccc(Cl)cc2F)CCN(C(C)=O)CC1
166 to 167 °C	CN1CCC(O)(c2ccccc2[N+](=O)[O-])CC1
109 to 111 °C	CC(C)Oc1c(-c2ccc(S(C)(=O)=O)cc2)cnn(Cc2ccccc2)c1=O
271 to 277 °C	O=C(O)c1cc2ccccc2nc1C(=O)O
135 to 137 °C	CS(=O)(=O)c1ccccc1C(=O)Cl
64 to 65 °C	CCc1c(-c2ccccc2)ncc2c(N3CCCCC3)nnc(N3CCCCC3)c12
117 to 118 °C	COC1(c2cccc(OCc3ccc(-n4ccnc4-c4ccccc4)cc3)c2)CCOCC1
222 to 224 °C	O=C1CCC(N2Cc3c(OCc4cn5ccccc5n4)cccc3C2=O)C(=O)N1 (centres undefined)
145 to 146 °C	O=C(c1cc(C(F)(F)F)cc(C(F)(F)F)c1)N1CCN(CCCC2(c3ccc(F)cc3)OCCO2)C[C@H]1Cc1c[nH]c2ccccc12
206 to 208 °C	COc1ccc2c(c1)C(C#Cc1ccccc1)(C(F)(F)F)NC(=O)N2 (racemic)
143 to 145 °C	CC(c1ccc2c(c1)N(Cc1ccc(S(C)(=O)=O)cc1)c1ccccc1S2)N(O)C(N)=O (centres undefined)

melting point	Structure (SMILES)
131 to 132 °C	CCCCSc1cc(C(=O)O)cc(N)c1Oc1ccccc1
> 300 °C	COc1cc(OC)cc(C(=O)NNC(=O)Nc2cccc3c2C(=O)c2c-3n[nH]c2-c2ccc(N3CCNCC3)cc2)c1
133 to 135 °C	CCOC(=O)C(=CNc1ccccc1)C(=O)c1cc(F)c(Cl)c([N+](=O)[O-])c1Cl
208 to 209 °C	CNC1([C@@H]2CCN(c3c(F)cc4c(=O)c(C(=O)O)cn([C@@H]5C[C@@H]5F)c4c3OC)C2)CC1
176 to 178 °C	CSc1ccc(C(=O)c2cc(C)cc3c2NC(=O)C3)cc1
184 to 185 °C	O=C(O)CCC1=C(n2nc(-c3c(-c4ccccc4)nn4ccccc34)ccc2=O)CCCC1
191 to 192 °C	O=C(O)/C=C\C(=O)N1CCc2cc(S(=O)(=O)N3CCN(c4cccc(Cl)c4)CC3)ccc21
227 to 230 °C	N#Cc1ccc(CC(=O)c2c(O)c3cccnc3n(-c3ccccc3)c2=O)cc1
158 to 160 °C	CCCc1ccccc1Sc1c(O)cc(-c2ccccc2)oc1=O
118 to 120 °C	CS(=O)(=O)Nc1cc(C(c2cc(C#N)ccc2F)S(=O)(=O)c2ccc(Cl)cc2)c(Cl)cn1 (centres undefined)
45 °C	CO[C@@H]1C=C2C=C3C(=C(C)C(=O)N3Cc3ccccc3)C[C@]2(C)[C@@H](C)[C@H]1O
64 to 65 °C	C#Cc1cc2ccccc2[nH]1
208 to 209 °C	O=C1NCCOc2cc([N+](=O)[O-])ccc21
175 °C	N#Cc1cc2c(c(C(=O)O)c1)NCCCC2
44 to 51 °C	N[C@@H](Cc1ccccc1)C(=O)N1CCN(C(c2ccc(F)cc2)c2ccc(F)cc2)CC1
177 to 179 °C	N#Cc1cc(=O)c(-c2ccccc2)co1
